Activity calls are given as the source filed them. The calls are words filed in the database; no cut-off is given here.
Key:
Mus musculus [1] = test: Analgesic activity in sc dosed mouse assessed as reduction in phenylalanine-induced writhing; format: functional
Cavia porcellus [2] = species on record: Cavia porcellus; test: Agonist activity at beta-adrenoceptor in guinea pig tracheal spiral assessed as potency for 75% relaxation of spontaneous contraction relative to soterenol; format: tissue-based; conditions: Trachea
[3] = Activity at alpha-adrenoceptor in rat seminal vesicle assessed as potency for producing 50% of that of l-epinephrine-induced contraction relative to soterenol; format: tissue-based
Mus musculus [4] = test: Inhibition of reserpine-induced ptosis in po dosed mouse; format: functional
Mus musculus [5] = test: Reversal of reserpine-induced ptosis in po dosed mouse; format: functional; conditions: Mus musculus, po; read-out: ED50
Rattus norvegicus [6] = test: Antagonism of morphine-induced analgesia in rat at 20 mg/kg, sc; format: functional; design: scale not given: the % may be the effect or the level left
Rattus norvegicus [7] = test: Analgesic activity in sc dosed rat by tail flick test; format: functional
Rattus norvegicus [8] = test: Antagonism of morphine-induced analgesia in sc dosed rat
Rattus norvegicus [9] = species on record: Rattus norvegicus; test: Anorexiant activity in rat by free feeding method relative to d-amphetamine; format: functional
Canis familiaris = species on record: Canis familiaris; test: Anorexiant activity in dog by free feeding method relative to d-amphetamine; format: functional, Canis lupus familiaris
Rattus norvegicus [10] = species on record: Rattus norvegicus; conditions: Tail
Cavia porcellus [11] = species on record: Cavia porcellus; test: Blockade of beta-adrenoceptor in guinea pig tracheal spiral relative to sotalol; format: tissue-based; conditions: Trachea
[12] = Blockade of alpha-adrenoceptor in rat seminal vesicle relative to phentolamine; format: tissue-based
Hypothalamus [13] = test: Drug uptake in Sprague-Dawley rat hypothalamus at 0.2 mg/kg, ip after 30 mins; format: ADME, organism-based; design: dose 0.2 mg/kg, route intraperitoneal; conditions: in vivo, 0.5 h
Brain = test: Drug uptake in Sprague-Dawley rat whole brain at 0.2 mg/kg, ip after 30 mins; format: ADME, organism-based; design: dose 0.2 mg/kg, route intraperitoneal; conditions: in vivo, 0.5 h
Hypothalamus [14] = test: Drug uptake in Sprague-Dawley rat hypothalamus at 0.3 mg/kg, ip after 30 mins; format: ADME, organism-based; design: dose 0.3 mg/kg, route intraperitoneal; conditions: in vivo, 0.5 h
[15] = Mus musculus, sc, read-out: ED50
[16] = Mus musculus, po, read-out: ED50

Compound | ED50 (Mus musculus [1]; [15]) [mg/kg] | fold change (FC) (Cavia porcellus [2]) | ED50 (Mus musculus [4]; [16]) [mg/kg] | ED50 (Mus musculus [5]) [mg/kg] | further results
CS(=O)(=O)Nc1cc(C(O)CNC2CC2)cc(Cl)c1O.Cl (configuration not stated) | > 6 | 0.048 | 0.072 | 0.082 | fold change (FC) [3]: 4.9; Activity (Rattus norvegicus [6]; route subcutaneous): 20.8%
CCN(CC(O)c1ccc(O)c(NS(C)(=O)=O)c1)C1CC1.Cl (configuration not stated) | > 6 |  |  |  | Activity (Rattus norvegicus [6]): inactive
CS(=O)(=O)Nc1cc(O)cc(C(O)CNC2CC2)c1.Cl (configuration not stated) |  |  |  |  | Activity (Cavia porcellus [2]): inactive; Activity [3]: Not Active
CS(=O)(=O)Nc1cc(CCNC2CC2)ccc1O.Cl | 0.62 | 0.002 | 3.6 | 1.5 | ED50 (Rattus norvegicus [7]): 2.77 mg/kg; ED50 (Rattus norvegicus [8]): 0.21 mg/kg; fold change (FC) (Rattus norvegicus [9]): 5.5; fold change (FC) (Canis familiaris): 5.5
CS(=O)(=O)Nc1ccc(C(O)CNC2CC2)cc1 (configuration not stated) |  |  |  |  | Activity (Rattus norvegicus [6]): inactive
C=CCN1CC[C@]23c4c5ccc(O)c4O[C@H]2[C@@H](O)C=C[C@H]3[C@H]1C5.Cl [NALORPHINE HYDROCHLORIDE] | 2.5 |  |  |  | ED50 (Rattus norvegicus [8]): 0.37 mg/kg; ED50 (Rattus norvegicus [10]): inactive
CCC(Cc1ccc(O)c(NS(C)(=O)=O)c1)NC1CC1.Cl (configuration not stated) | > 6 | 0.0013 |  |  | 
CS(=O)(=O)Nc1cccc(C(O)CNC2CC2)c1.Cl (configuration not stated) | > 6 | < 0.01 | 1 | 0.8 | fold change (FC) (Cavia porcellus [11]): 0.05
Cc1cc(C(O)CNC2CC2)cc(NS(C)(=O)=O)c1O.Cl (configuration not stated) |  | 5.8e-05 | 0.15 | 0.67 | fold change (FC) [3]: 8.7; Activity (Rattus norvegicus [6]; route subcutaneous): 20.8%
CS(=O)(=O)Nc1cc(C(O)CNC2CCC2)ccc1O.Cl (configuration not stated) | > 6 | 0.36 | 20 | 24 | 
C[C@H](NC1CC1)[C@H](O)c1cccc(NS(C)(=O)=O)c1.Cl (relative stereo) | > 6 |  |  |  | fold change (FC) (Cavia porcellus [11]): 0.1
CC(N)Cc1ccccc1.O=S(=O)(O)O (racemic) [AMPHETAMINE SULFATE] |  |  | 0.67 | 1.94 | 
CCOC(CNC1CC1)c1ccc(O)c(NS(C)(=O)=O)c1.Cl (configuration not stated) | > 6 |  | 35 | 9.6 | Activity (Rattus norvegicus [6]): inactive
CC[C@H](NC1CC1)[C@H](O)c1ccc(O)c(NS(C)(=O)=O)c1.Cl (relative stereo) | > 6 | 0.23 | 20 | 8.9 | fold change (FC) [3]: 0; Activity (Rattus norvegicus [6]): inactive; fold change (FC) [12]: 0.000045
Oc1ccc(C(O)CNC2CC2)cc1Cl (configuration not stated) | > 6 |  |  |  | Activity (Rattus norvegicus [6]; route subcutaneous): 14.5%
CS(=O)(=O)Nc1cc(C(O)CNC2CC2)ccc1O.Cl (stereo in doubt; 46) |  |  |  |  | ED50 (Mus musculus [1]): >50 mg/kg; fold change (FC) [3]: 0; ED50 (Mus musculus [4]): 31.3 mg/kg
CN(C)S(=O)(=O)Nc1cc(C(O)CNC2CC2)ccc1O.Cl (configuration not stated) | 1.7 | 0.028 | 0.94 | 1.3 | ED50 (Rattus norvegicus [7]): 50 mg/kg; ED50 (Rattus norvegicus [8]): 0.72 mg/kg
CS(=O)(=O)Nc1cc(C(O)CNC2CC2)ccc1O.Cl (configuration not stated) |  |  |  |  | Drug uptake (Hypothalamus [13]): Not Active; Drug uptake (Brain): Not Active; Drug uptake (Hypothalamus [14]): Active

Reference: ChEMBL document CHEMBL3272017, “Adrenergic sulfonanilides. 4. Centrally active beta-adrenergic agonists” (J Med Chem, 1976)
